Data published in US20140288188A1, “Process for Stabilizing Bacterial Content of Aqueous Ground Natural Calcium Carbonate and/or Precipitated Calcium Carbonate and/or Dolomite and/or Surface-Reacted Calcium Carbonate-Comprising Mineral Preparations” (priority 2011, published 2014).
Like-named read-outs stand apart in the source and are kept apart here.

Columns and labels:
[1] = system: rGDA/IT bacteria culture (GDA/CIT/MIT-resistant); type: cell-based, Pseudomonas; details: no BM1, GNCCS, one inoculation
Protocol: (§1) All quoted bacterial counts (Total Viable Count (TVC) values are in cfu/ml) in the Tables herebelow are determined after 48 hours following plate-out and in accordance with the counting method described in “Bestimmung von aeroben mesophilen Keimen”, Schweizerisches Lebensmittelbuch, chapter 56, section 7.01, edition of 1985, revised version of 1988.
BM1 and ethylene diamine (hereafter “EDA”) were introduced into 50 g samples of each of the slurries indicated in Table 1 in the listed amounts (quoted in ppm based on the weight of the aqueous phase in the slurry). The samples were then stored at 30° C. for 72 hours. References were prepared according to the same protocol but in absence of EDA and in absence of EDA and BM1.
The slurry samples were then inoculated with 1 ml of a mixture of rGDA/IT bacteria culture. Each of the samples was incubated at 30° C. for 24 hours. Thereafter, a 1:10 dilution in phosphate buffered saline (PBS) was plated on plate count agar (PCA). These plates were incubated at 30° C. and analysed after 48 hours.
The biocide-resistant calcium carbonate slurry culture rGDA/IT is GDA/CIT/MIT-resistant and was obtained from product storage tanks located at white mineral dispersion (WMD) manufacturing plants that used the related biocide to preserve the products. […]
BM1 and a diamine selected from 1,3-bis(aminomethyl)cyclohexane (hereinafter “AMC”), 1,3-bis(aminomethyl)benzene (hereinafter “AMB”), 1,7-diaminoheptane (hereinafter “DAH”), and 1,8-diamionoocatane (hereinafter “DAO”) were introduced into 50 g samples of each of the slurries indicated in Table 4 in the listed amounts (quoted in ppm based on the weight of the aqueous phase in the slurry). The samples were then stored at 30° C. for 72 hours. References were prepared according to the same protocol but in absence of the respective diamine used and in the absence of the respective diamine and BM1. […]

[2] = system: rOPP bacteria culture (OPP-resistant); assay: Biocidal activity in ground natural calcium carbonate slurry (GNCCS), Total Viable Count after inoculation with rOPP culture; type: cell-based, Pseudomonas putida and Pseudomonas stutzeri; details: one inoculation
Protocol: as §1
OPP, in the form of an aqueous solution having a concentration of 45%, and one of AMC, AMB, DAH, and DAO were introduced into 50 g samples of each of the slurries indicated in Table 6 in the listed amounts (quoted in ppm active content based on the weight of the aqueous phase in the slurry). References were prepared according to the same protocol but in absence of any one of AMC, AMB, DAH, and DAO. A reference was prepared according to the same protocol but in absence of AMC, AMB, DAH, and DAO and in absence of any biocide.
The slurry samples were then inoculated with 1 ml of a mixture of Pseudomonas species containing predominantly Pseudomonas putida and Pseudomonas stutzeri that are resistant to OPP. Each of the samples was incubated at 30° C. for 72 hours. Thereafter, a 1:10 dilution in phosphate buffered saline (PBS) was plated on plate count agar (PCA). These plates were incubated at 30° C. and analysed after […]. […]

SMILES | TVC ([1]; diamine 750 ppm alone) | also measured
NCCN [EDA, ethylene diamine] | – | TVC ([1]; EDA 1050 ppm on aqueous phase alone): 1 × 10^6 cfu/ml
Oc1ccccc1-c1ccccc1 [OPP, orthophenylphenol, reference compound] | – | TVC ([2]; OPP 250 ppm alone): 1 × 10^6 cfu/ml
NCc1cccc(CN)c1 [AMB, 1,3-bis(aminomethyl)benzene] | 1 × 10^6 cfu/ml | –
NCCCCCCCCN [DAO, 1,8-diamionoocatane] | 1 × 10^6 cfu/ml | TVC ([2]; diamine 750 ppm alone, no OPP): 1 × 10^6 cfu/ml
NCC1CCCC(CN)C1 (stereo not shown) [AMC, 1,3-bis(aminomethyl)cyclohexane] | 1 × 10^6 cfu/ml | –
NCCCCCCCN [DAH, 1,7-diaminoheptane] | 1 × 10^6 cfu/ml | –
